According to the NIST ThermoML archive (doi:10.1016/j.jct.2017.08.004):

Test: molar heat capacity at constant pressure
Conditions: 101.33 kPa, Crystal

OC[C@H](O)C(O)[C@@H](O)CO [L-(-)-arabitol]
Conditions	molar heat capacity at constant pressure [J/K/mol]
1 K, relaxation calorimetry	0.0009071
1.925 K, relaxation calorimetry	0.00486
2 K, relaxation calorimetry	0.00537
2.126 K, relaxation calorimetry	0.006333
2.35 K, relaxation calorimetry	0.008531
2.603 K, relaxation calorimetry	0.01139
2.89 K, relaxation calorimetry	0.01551
3 K, relaxation calorimetry	0.01737
3.204 K, relaxation calorimetry	0.02118
3.551 K, relaxation calorimetry	0.02864
3.938 K, relaxation calorimetry	0.03916
4 K, relaxation calorimetry	0.04172
4.366 K, relaxation calorimetry	0.05484
4.845 K, relaxation calorimetry	0.07705
5 K, relaxation calorimetry	0.08452
5.374 K, relaxation calorimetry	0.1069
5.962 K, relaxation calorimetry	0.1505
6 K, relaxation calorimetry	0.1535
6.615 K, relaxation calorimetry	0.2138
7 K, relaxation calorimetry	0.26
7.345 K, relaxation calorimetry	0.3087
8 K, relaxation calorimetry	0.4176
8.151 K, relaxation calorimetry	0.4472
9 K, relaxation calorimetry	0.6348
9.046 K, relaxation calorimetry	0.6445
10 K, relaxation calorimetry	0.9169
10.12 K, relaxation calorimetry	0.9515
11.21 K, relaxation calorimetry	1.346
12.43 K, relaxation calorimetry	1.885
13.79 K, relaxation calorimetry	2.589
15 K, relaxation calorimetry	3.316
15.3 K, relaxation calorimetry	3.507
16.99 K, relaxation calorimetry	4.683
18.86 K, relaxation calorimetry	6.145
20 K, relaxation calorimetry	7.063
21 K, relaxation calorimetry	7.93
23.34 K, relaxation calorimetry	10
25 K, relaxation calorimetry	11.59
25.89 K, relaxation calorimetry	12.41
28.74 K, relaxation calorimetry	15.2
30 K, relaxation calorimetry	16.48
31.91 K, relaxation calorimetry	18.4
35 K, relaxation calorimetry	21.5
35.44 K, relaxation calorimetry	21.96
39.34 K, relaxation calorimetry	25.96
40 K, relaxation calorimetry	26.56
43.67 K, relaxation calorimetry	30.28
45 K, relaxation calorimetry	31.57
48.47 K, relaxation calorimetry	34.84
50 K, relaxation calorimetry	36.42
53.79 K, relaxation calorimetry	39.93
55 K, relaxation calorimetry	41.06
59.71 K, relaxation calorimetry	45.44
60 K, relaxation calorimetry	45.6
65 K, relaxation calorimetry	50.22
66.3 K, relaxation calorimetry	51.38
70 K, relaxation calorimetry	54.55
73.59 K, relaxation calorimetry	57.52
75 K, relaxation calorimetry	58.73
80 K, relaxation calorimetry	62.81
81.71 K, relaxation calorimetry	64.34
85 K, relaxation calorimetry	66.8
90 K, relaxation calorimetry	70.7
90.67 K, relaxation calorimetry	71.56
95 K, relaxation calorimetry	74.53
100 K, relaxation calorimetry	78.28
100.62 K, relaxation calorimetry	78.32
110 K, relaxation calorimetry	85.55
110.77 K, relaxation calorimetry	85.86
120 K, relaxation calorimetry	92.52
120.75 K, relaxation calorimetry	93.29
130 K, relaxation calorimetry	99.22
130.83 K, relaxation calorimetry	99.89
140 K, relaxation calorimetry	105.69
141 K, relaxation calorimetry	106.35
150 K, relaxation calorimetry	111.98
151.08 K, relaxation calorimetry	112.59
160 K, relaxation calorimetry	118.13
161.19 K, relaxation calorimetry	118.71
170 K, relaxation calorimetry	124.19
171.26 K, relaxation calorimetry	124.81
180 K, relaxation calorimetry	130.18
181.32 K, relaxation calorimetry	131.15
188.15 K, Small sample (50 mg) DSC	129.04
189.15 K, Small sample (50 mg) DSC	130.57
190 K, relaxation calorimetry	136.16
190.15 K, Small sample (50 mg) DSC	131.98
191.15 K, Small sample (50 mg) DSC	132.97
191.4 K, relaxation calorimetry	137.23
192.15 K, Small sample (50 mg) DSC	133.65
193.15 K, Small sample (50 mg) DSC	134.27
194.15 K, Small sample (50 mg) DSC	135.12
195.15 K, Small sample (50 mg) DSC	135.91
196.15 K, Small sample (50 mg) DSC	136.66
197.15 K, Small sample (50 mg) DSC	137.42
198.15 K, Small sample (50 mg) DSC	138.16
199.15 K, Small sample (50 mg) DSC	138.8
200 K, relaxation calorimetry	142.15
200.15 K, Small sample (50 mg) DSC	139.49
201.15 K, Small sample (50 mg) DSC	140.3
201.57 K, relaxation calorimetry	142.67
202.15 K, Small sample (50 mg) DSC	141.06
203.15 K, Small sample (50 mg) DSC	141.64
204.15 K, Small sample (50 mg) DSC	142.39
205.15 K, Small sample (50 mg) DSC	143.02
206.15 K, Small sample (50 mg) DSC	143.74
207.15 K, Small sample (50 mg) DSC	144.43
208.15 K, Small sample (50 mg) DSC	145.06
209.15 K, Small sample (50 mg) DSC	145.72
210 K, relaxation calorimetry	148.19
210.15 K, Small sample (50 mg) DSC	146.38
211.15 K, Small sample (50 mg) DSC	147.05
211.68 K, relaxation calorimetry	149.03
212.15 K, Small sample (50 mg) DSC	147.72
213.15 K, Small sample (50 mg) DSC	148.33
214.15 K, Small sample (50 mg) DSC	149.06
215.15 K, Small sample (50 mg) DSC	149.6
216.15 K, Small sample (50 mg) DSC	150.38
217.15 K, Small sample (50 mg) DSC	151.13
218.15 K, Small sample (50 mg) DSC	152.05
219.15 K, Small sample (50 mg) DSC	152.76
220 K, relaxation calorimetry	154.3
220.15 K, Small sample (50 mg) DSC	153.39
221.15 K, Small sample (50 mg) DSC	153.99
221.77 K, relaxation calorimetry	155.91
222.15 K, Small sample (50 mg) DSC	154.72
223.15 K, Small sample (50 mg) DSC	155.35
224.15 K, Small sample (50 mg) DSC	155.94
225.15 K, Small sample (50 mg) DSC	156.64
226.15 K, Small sample (50 mg) DSC	157.32
227.15 K, Small sample (50 mg) DSC	157.87
228.15 K, Small sample (50 mg) DSC	158.58
229.15 K, Small sample (50 mg) DSC	159.08
230 K, relaxation calorimetry	160.49
230.15 K, Small sample (50 mg) DSC	159.71
231.15 K, Small sample (50 mg) DSC	160.4
231.87 K, relaxation calorimetry	161.72
232.15 K, Small sample (50 mg) DSC	160.98
233.15 K, Small sample (50 mg) DSC	161.67
234.15 K, Small sample (50 mg) DSC	162.2
235.15 K, Small sample (50 mg) DSC	162.87
236.15 K, Small sample (50 mg) DSC	163.51
237.15 K, Small sample (50 mg) DSC	164.14
238.15 K, Small sample (50 mg) DSC	164.86
239.15 K, Small sample (50 mg) DSC	165.4
240 K, relaxation calorimetry	166.8
240.15 K, Small sample (50 mg) DSC	166.04
241.15 K, Small sample (50 mg) DSC	166.73
241.87 K, relaxation calorimetry	168.05
242.15 K, Small sample (50 mg) DSC	167.44
243.15 K, Small sample (50 mg) DSC	168.16
